Results from ChEMBL document CHEMBL5360569, “Inhibition of the pyroptosis-associated inflammasome pathway: The important potential mechanism of ginsenosides in ameliorating diabetes and its complications” (Eur J Med Chem, 2023).

Assay: Cmax in po dosed human plasma
Type: ADME, organism-based
Design: route po

## CC(C)=CCC[C@](C)(O[C@@H]1O[C@H](CO[C@@H]2O[C@H](CO)[C@@H](O)[C@H](O)[C@H]2O)[C@@H](O)[C@H](O)[C@H]1O)[C@H]1CC[C@]2(C)[C@@H]1[C@H](O)C[C@@H]1[C@@]3(C)CC[C@H](O[C@@H]4O[C@H](CO)[C@@H](O)[C@H](O)[C@H]4O[C@@H]4O[C@H](CO)[C@@H](O)[C@H](O)[C@H]4O)C(C)(C)[C@@H]3CC[C@]12C [GINSENOSIDE RB1]
  Cmax: 3.94 ng/mL

## CC(C)=CCC[C@](C)(O[C@H]1O[C@H](CO)[C@@H](O)[C@H](O)[C@H]1O)[C@H]1CC[C@]2(C)[C@@H]1[C@H](O)C[C@@H]1[C@@]3(C)CC[C@H](O)C(C)(C)[C@@H]3CC[C@]12C
  Cmax: 8.35 ng/mL
